Assay results from patent US20240398822A1, “METHODS AND COMPOSITIONS FOR TREATING AND MANAGING ALZHEIMER'S DISEASE” (Pharmatrophix, Inc., priority 2021, published 2024).
Entries after “also recorded” stand apart in the source; their conditions may differ.

Assays:
[1] = Drug substance stability on storage and under accelerated/ICH stress conditions; format: physicochemical
Experimental: Preparation of the clinical dosage form consists of a dry fill of the drug substance into gelatin capsules with no excipients. For the Phase II study, capsules with the salt of Formula (II)(200 mg or 400 mg, free base weight) are machine-filled and packaged in blister strips with aluminum foil backing, which are stored in cardboard boxes. Matching placebo capsules are also available in the same packaging.

[2] = system: patients with mild to moderate Alzheimer's disease; experiment: Phase IIa cognitive testing (ADAS-cog, MMSE); format: in vivo, human
Experimental: Exploratory outcome evaluations involved the assessment of cognitive and clinical function (Table 1). […] Items from the Neurological Testing Battery (NTB), together with the ADAS-Cog 13, Spatial Navigation Test (AMUNET) were performed at Baseline, Week 12 and Week 26 (Visits 2, 4 and 5). While the MMSE was used primarily as a screening and baseline disease staging tool, its repeated administration at Week 26 provided an additional exploratory cognitive outcome measure. The Geriatric Depression Scale (GDS) was assessed at each Visit (Screening, Baseline, Week 4, 12, 26: Visits 1-5) and the Clinical Global Impression test (CGI) with Severity was assessed at Screening (Visit 1) and then the Improvement was subsequently assessed at Weeks 12 and 26 (Visits 4 and 5). For each test, whether categorical or numeric, all raw scores were considered interval in nature. The change from Screening (Week −8) or Baseline (Week 0) was therefore be derived for each patient. Actual values at each Visit and Changes from Screening/Baseline were summarized.
Alzheimer's Disease Assessment Scale—13 items (total score=85) is used as a parameter for exploratory outcome analysis. ADAS-cog is a psychometric instrument designed to evaluate the severity of cognitive and non-cognitive behavioral dysfunctions characteristic of people with AD. The cognitive portion assesses memory, language and praxis functions. Most items are rated on a scale of 0 to 5, where 0 indicates no impairment and 1 to 5 indicates very mild (1), mild (2), moderate (3), moderately severe (4) or severe impairment (5) respectively. Other items are rated on the presence or absence of a characteristic number of errors or severity of errors. The total scores from the ADAS-cog sub-scales range from 0 (no impairment) to 85 (errors in all sub-tests).
A positive (i.e. increasing) change of the score indicates cognitive worsening. In a meta-analysis model of 52 Alzheimer's Disease trials involving 19,972 mild-moderate disease subjects, a spontaneous decline in performance corresponding to an increase in ADAS-cog score of 5.5 points over one year, pointing to an expected average increase in score of 2.75 points over a 6-month period.
ADAS-Cog was assessed at Visits 2, 4 and 5, as well as at the early discontinuation Visit, if applicable.
While the MMSE was used primarily as a screening and baseline disease-staging tool, its administration at Week 26 provided an additional exploratory cognitive outcome measure.
Mini Mental Status Exam (MMSE). The MMSE can be used by a physician to evaluate a patient's condition over the course of administration. A baseline value prior to administration of a salt of Formula (II) can serve as a basis for baseline disease stage and also for the assessment of the effect of treatment on slowing loss of cognitive function. The expected decline in MMSE over a six month period generally ranges 1-3 points out of the total of 30 points possible in the MMSE test.

[3] = system: patients with mild to moderate Alzheimer's disease; experiment: Phase IIa structural MRI (regions of interest and voxel-based whole brain analysis); format: in vivo, human
Experimental: Volumetric MRI is conduction at the first and final visits. Volumetric analyses of the whole brain, hippocampus and other regions of interest are conducted. Measures of regional volumes as determined by MRI are regarded as standard measures of brain degeneration that are known to occur in AD. Volumes of the lateral ventricles are also assessed. Increasing ventricular volume is a marker for a diffuse increase in brain atrophy. […] The following Regions of interest were investigated in the ITT population: MRI Volume of the lateral ventricles in mm3—longitudinal stream change, MRI Average volume of the hippocampus in mm3—longitudinal stream change, MRI Average Volume of the entorhinal cortex in mm3—longitudinal stream change, MRI Total brain volume in mm3 change. Baseline and final Visit MRI scan were used to measure interval changes in volumes. Various cortical regions such as the Cingulate cortex were also assessed. […] The identified brain regions are similar in distribution to those having been previously identified to be particularly vulnerable to degeneration in AD.
For this analysis, the drug treatment group contains subject treated with either 200 or 400 mg doses. […] FIGS. 46A-46C show group x time interaction patterns using T1-weighted structural MRI. Contrast estimate plots show the magnitude and direction of the interaction effects observed in the flexible factorial GLM. […] Therefore, if the actual observed ratio of t-values is close to equivalent in the input map at a given p and k threshold, the MCS ratio and p-value will tend to support the null hypothesis of no drug effect. […] Increased thickness is similar to increased volume and means less degeneration. Here increased gyrification means increased atrophy.

[4] = system: amyloid based mice (L/S-APP) or tau based mice (PS19); conditions: published mouse studies, cited from earlier work
[5] = system: healthy elderly volunteers; experiment: Phase I (1b) safety and tolerability, 600 mg b.i.d. for 10 days
Experimental: Trial specific stopping rules were set to protect the trial subjects. Dosing would have been stopped for all subjects and the trial terminated if any of the stopping rules had occurred.
15 healthy adults were screened within three weeks prior to the baseline visit. Following 5 screening failures, 10 healthy adults, 5 aged 18-64 years and 5 aged 65-84 years were enrolled.
A phase 1b studied was conducted in 10 elderly normal subjects for the purpose of obtaining plasma and CSF coordinated drug levels and to further assess safety at a dose of 600 mg bid over a 10-day period. The study was double-blinded and placebo controlled with 8 subjects receiving drug.

[6] = 600 mg b.i.d. oral, 10 days, 8 subjects
[7] = non-serious AE, 600 mg b.i.d. oral, 10 days

CC[C@H](C)[C@H](N)C(=O)NCCN1CCOCC1 [LM11A-31-BHS, Tris[(2S,3S)-2-amino-3-methyl-N-(2-morpholinoethyl)pentanamide] tetra(monohydrogensulfate), monosulfate]
impurities following storage at ICH stress conditions ([1]; GMP lots): no impurities above the LOD
changes related to assay or impurities ([1]; Phase I drug substance lot, six months accelerated conditions, or 48 months at 25° C./60% RH): no significant changes
stability under accelerated temperature and humidity conditions ([1]; drug substance): very good stability
changes in the drug substance on storage ([1]; through 18 months at −20° C., 5° C., 25° C./60% RH or 40° C./75% RH, other than moisture content): no significant changes
ADAS-cog-11, drug dose analysis ([2]; 200 mg bid and 400 mg bid versus placebo): trend for decreased worsening of cognitive scores at both doses
ADAS-cog-13, drug dose analysis ([2]; 200 and 400 mg groups versus placebo): nominal decrease in the increase in score
slowing trend in clinical outcome measures ([2]; at 6 months, phase 2a study): 30-45%
worsening of ADAS-13 and -11 scores, drug versus placebo ([2]; combined drug group, 26 weeks, does not reach statistical significance): trend in slowing the worsening
directionality of slowing progression of worsening in ADAS-cog and MMSE ([2]; drug versus placebo): favorable effect of drug treatment
trends for slower progression of ADAS-cog and MMSE scores, dose comparison ([2]; effects at neither dose reached statistical significance): greater at the 400 compared to 200 mg doses
cortical thickness and gyrification ([3]; anterior cingulate region area 33 prime): drug effect on improving cortical thickness or decreasing gyrification
hippocampal (HC) volume, sMRI ([3]; combined drug group, 6-month period, p=0.006): significant increase in HC volume
volume of the dentate gyrus ([3]; drug group, humans): promotes increased volume of the dentate gyrus; also recorded: significant increase in the volume of the dentate gyrus
voxel-wise T1-weighted structural MRI, loss of volume, dose analysis ([3]; flexible factorial GLM, p<0.05 and cluster size >100): significant effect at both the 200 and 400 mg doses in slowing loss of volume
volume loss in voxel-based whole brain MRI, drug versus placebo ([3]; treatment period): slow volume loss in brain regions known to be particularly vulnerable to degeneration in AD
voxel-wise structural MRI volume loss, age analysis ([3]; younger <72 years, older >=72 years): significant drug effect in both age groups
effect on pathological tau, neurites, synapses and spines, astrocytes and microglia ([4]; GFAP and CD68 staining): inhibits levels of pathological tau, loss of neurites, loss of synapses and spines, activation of astrocytes (GFAP staining is less) and activation of microglia (CD68 staining is less)
effect on synaptic function (LTP signal, EPSP slope in hippocampal slices) [4]: corrects synaptic function
safety and tolerability in repeated dose schedule ([5]; 600 mg BID up to ten days of treatment): support the safety and tolerability
number of deaths (all causes) ([5]; 600 mg b.i.d. oral, 10 days): 0
number of deaths resulting from adverse events ([5]; 600 mg b.i.d. oral, 10 days): 0
serious adverse event Headache, occurrences causally related to treatment/all ([5]; 600 mg b.i.d. oral, 10 days): 0/1
drug related serious adverse events [5, 6]: 0 drug related adverse events
mild drug related adverse events [5, 6]: 4 drug related adverse events
moderate drug related adverse events [5, 6]: 0 drug related adverse events
severe drug related adverse events [5, 6]: 0 drug related adverse events
Abdominal pain, occurrences (all) [5, 7]: 1
Arthralgia, occurrences (all) [5, 7]: 3
Diarrhea, occurrences (all) [5, 7]: 1
Dry eye, occurrences (all) [5, 7]: 0
Flatulence, occurrences (all) [5, 7]: 3
Gamma-glutamyltransferase increased, occurrences (all) [5, 7]: 1
Headache, occurrences (all) [5, 7]: 7
Oropharyngeal pain, occurrences (all) [5, 7]: 0
Polyuria, occurrences (all) [5, 7]: 1
Presyncope, occurrences (all) [5, 7]: 0
alterations in physical examination, vital signs and ECG recordings ([5]; phase 1b, 600 mg bid, 10-day period, 8 subjects receiving drug): no clinically relevant alterations
changes in haematological and biochemistry parameters ([5]; phase 1b, 600 mg bid, 10 days, neither clinical relevance nor relationship with the study drug): Minimal changes
